From patent US20230285477A1, “MICROBIAL THERAPY” (BEO THERAPEUTICS, priority 2020, published 2023)

Key:
[1] = tested on: hyperuricemia mouse model; test: Hyperuricemia mouse model (high-purine diet + potassium oxonate), serum uric acid; format: in vivo, mice; conditions: FIG. 9; normal range 40-65
Text: 6-10 weeks old mice are randomly divided into groups of 10 mice as follows, using 1.0×10^8-1010 CFU for the test product: • 1) Control group • 2) Allopurinol treatment group • 3) Microbial treatment group 1: Test product is bacterial strain BEO #104 • 4) Microbial treatment group 2: Test product is bacterial strain BEO #110 • 5) Microbial treatment group 4: Test product is bacterial strain BEO #227 • 6) Microbial treatment group 6: Test product is mix of bacterial strains BEO #110+BEO #227
The control group is fed a normal diet (laboratory chow and water ad libitum) and treated with saline (0.5 ml, sodium chloride solution in water) by intragastric administration once a day. The other groups are fed a high-purine diet (laboratory high-purine chow and water ad libitum) and administered an intraperitoneal injection of potassium oxonate 300 mg/kg once a day. The microbial treatment groups are treated daily with approximately 1.0×10^9 CFU/day by intragastric administration. The strains tested all have QPS status and they are produced and formulated under laboratory conditions.
Mice are weighed day −1 for determination of mean weight of animals in the experiment and for composition of groups. […]
Serum is collected once weekly and at the end of experiment. […] Serum is analysed for uric acid concentration.

patients = patients treated with allopurinol; cited from earlier work
uricase = test: Bacterial uricase activity (Amplex Red Uric Acid/Uricase Assay Kit); format: biochemical; conditions: mean average of all strains of the species; 2% uric acid in medium; fluorescence after 30 min; positive control 20 mM H2O2
Method: Bacterial strains were evaluated for uricase catalytic activity. Prior to the assay, 1/100th volume from the glycerol stocks (example 1) was added to the microtiter plate containing appropriate medium (see overview). Culturing conditions (time, temperature, medium, aerobic or anaerobic) depend on species and can be found in Table 1. Uric acid was dissolved in medium to 2% and the medium was filter sterilized (therefore uric acid was immediately present in the medium upon culturing). Growth of the bacterial strains was assessed by visual examination (the level of viscosity of the medium) before harvesting for fluorescence measurement. […]
The enzyme assay, Amplex® Red Uric Acid/Uricase Assay Kit; Catalog No. A22181; Molecular Probes, was used according to the instructions of the manufacturer. Fluorescence readouts were determined after 30 min using excitation at 530±12.5 nm and fluorescence detection at 590±17.5 nm. […]
The activity of the strains listed in Table 1 was determined, as described in Examples 2 and 3, as percentage of maximal fluorescence from positive controls (Bifidobacterium breve strain ATCC 15701 was used as positive control for the screems according to Example 2 and 20 mM H2O2 solution was used as positive control for the screems according to Example 3). […]

Compound | serum urate concentration over a 23-hour treatment cycle [1] | patients treated reaching the treatment target (patients) | Uricase activity: Inhibitory activity (uricase)
Oc1ncnc2[nH]ncc12 [allopurinol] | large fluctuations in serum urate outside the normal range | 30-40% | –
Lactobacillus plantarum | – | – | low (low (5-30% of positive control))
